Assays:
mouse = settings: second phase (15-30 minutes); cited from earlier work
female rats = settings: doses of 5 and 10 mg/kg; cited from earlier work
[1] = test system: patients with major depressive disorder; settings: cited from earlier work
5-HT2c receptor = molecular target: T1, 5-HT2c receptor (Homo sapiens, UniProt P28335); assay: Functional activity at the 5-HT2c receptor; format: biochemical
T1 sequence (P28335 33-458): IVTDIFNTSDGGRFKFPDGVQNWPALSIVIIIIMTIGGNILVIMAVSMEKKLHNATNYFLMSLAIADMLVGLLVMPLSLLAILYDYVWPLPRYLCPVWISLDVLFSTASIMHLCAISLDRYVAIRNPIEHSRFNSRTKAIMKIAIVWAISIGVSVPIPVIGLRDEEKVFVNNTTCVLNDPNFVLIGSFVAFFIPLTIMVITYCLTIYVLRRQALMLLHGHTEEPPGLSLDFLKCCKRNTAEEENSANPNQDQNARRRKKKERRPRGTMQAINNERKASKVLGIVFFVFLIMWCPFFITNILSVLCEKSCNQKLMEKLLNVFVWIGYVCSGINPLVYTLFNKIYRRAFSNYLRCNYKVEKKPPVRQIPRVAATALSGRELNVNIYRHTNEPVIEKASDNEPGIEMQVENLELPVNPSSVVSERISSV
Description: It has been proposed that serotonin exerts control of dopamine release in the ventral tegmental area via the 5-HT2c receptor. […] Opioid analgesic effects are manifested via the periaqueductal gray whereas reduction in self-administration results from a reduction in dopamine neurotransmission via 5-HT2c partial agonism in the ventral tegmental area.

rats = assay: Hot plate test of analgesia; format: in vivo, rat
Description: The hot plate test assesses antinociception in rats and mice (see, e.g., Basile, A. et al., “Characterization of the Antinociceptive Actions of Bicifadine in Models of Acute, Persistent, and Chronic Pain,” The Journal of Pharmacology and Experimental Therapeutics, 2007, 321 (3), 1208-1225).

SMILES | effectiveness compared with morphine in formalin paw lick test (mouse) | food motivated responding (female rats) | antidepressant activity [1] | activity at the 5-HT2c receptor (5-HT2c receptor) | antinociception in hot plate test, given alone (rats; amitifadine alone) | effect on the opioid's antinociception in hot plate test, in combination (rats; amitifadine in combination with an opioid)
Cl.Clc1ccc([C@]23CNC[C@H]2C3)cc1Cl [(1R,5S)-1-(3,4-dichlorophenyl)-3-azabicyclo[3.1.0]hexane hydrochloride] | as effective as morphine | – | – | – | – | –
Clc1ccc([C@]23CNC[C@H]2C3)cc1Cl [amitifadine, (1R,5S)-1-(3,4-dichlorophenyl)-3-azabicyclo[3.1.0]hexane] | – | does not significantly affect | significant antidepressant activity | partial agonist | antinociceptive | does not attenuate the opioid's antinociception, instead extending the opioid's antinociception

— patent US12257233B2, “Methods” (Ethismos Research, Inc., priority 2018, dated 2025)
